Reference: US20260125375A1 (Pfizer Inc., priority 2022, published 2026)

Biological target: T1, C-CBL (46-435) (Homo sapiens, UniProt P22681)
T1 construct: N-terminal biotinylated WT CBL-B (36-427) and C-CBL (46-435) were captured on a streptavidin (SA) coated sensor chip
T1 sequence (P22681 46-435): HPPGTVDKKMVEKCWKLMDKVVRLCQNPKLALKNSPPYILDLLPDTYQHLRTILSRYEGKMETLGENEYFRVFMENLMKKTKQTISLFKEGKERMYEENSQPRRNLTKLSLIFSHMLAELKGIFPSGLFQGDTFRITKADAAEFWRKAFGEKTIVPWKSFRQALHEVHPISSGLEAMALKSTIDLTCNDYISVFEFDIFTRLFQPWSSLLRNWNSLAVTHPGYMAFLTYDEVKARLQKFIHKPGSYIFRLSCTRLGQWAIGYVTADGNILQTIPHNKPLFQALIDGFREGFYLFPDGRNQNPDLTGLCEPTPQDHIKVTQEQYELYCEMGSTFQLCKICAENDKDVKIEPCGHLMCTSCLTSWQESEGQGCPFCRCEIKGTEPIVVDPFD
Experiment: Surface Plasmon Resonance (SPR) assay, binding affinity and kinetics, C-CBL
Details: SPR at 10° C., biotinylated C-CBL (46-435) on streptavidin chip; geometric mean; read-out: C-CBL SPR Kd (nM) GMean
How it was run: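 Biotinylated WT CBL-B (36-427) or C-CBL (46-435) captured on streptavidin chip (~5000–6000 RU); binding at 10° C in HEPES buffer pH 7.2 with 2% DMSO. Multi-cycle: 2-fold, 10-point series from 10 or 100 μM, 90 s association. Single-cycle: 3-fold, 6-point, 0.001–1 μM, 120 s association, >5400 s dissociation.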

Row | SMILES | Kd
1 | C[C@@H](N[C@H]1CC[C@@H]1O)c1nc(C(F)(F)F)cc2c(-c3cccc([C@H](c4nncn4C)C4CCC4)c3)n[nH]c12 (single isomer, unassigned) [Example D22] | 9.8 nM
2 | C[C@H](NC1CC[C@H]1O)c1nc(C(F)(F)F)cc2c(-c3cccc([C@H](c4nncn4C)C4CCC4)c3)n[nH]c12 (single isomer, unassigned) [Example D30] | 5.6 nM
3 | C[C@@H](c1nc(C(F)(F)F)cc2c(-c3cccc(C4(Cc5nncn5C)COC4)c3)n[nH]c12)N1CC[C@@H](F)C1 (single isomer, unassigned) [Example D9] | 96 nM
4 | C[C@@H](N[C@H]1C[C@@H](O)C1)c1nc(C(F)(F)F)cc2c(-c3cccc([C@H](c4nncn4C)C4CCC4)c3)n[nH]c12 (single isomer, unassigned) [Example C37] | 75.5 nM
5 | C[C@@H]1CCCN([C@@H](C)c2nc(C(F)(F)F)cc3c(-c4cccc(C5(Cc6nncn6C)COC5)c4)n[nH]c23)C1 (single isomer, unassigned) [Example D13] | 51.2 nM
6 | Cn1cnnc1CC1(c2cccc(-c3n[nH]c4ncc(C(F)(F)F)cc34)c2)COC1 [Example B3, 3-(3-{3-[(4-methyl-4H-1,2,4-triazol-3-yl)methyl]oxetan-3-yl}phenyl)-5-(trifluoromethyl)-1H-pyrazolo[3,4-b]pyridine] | 861 nM
7 | C[C@@H](N[C@H]1C[C@H](O)C1)c1nc(C(F)(F)F)cc2c(-c3cccc([C@H](c4nncn4C)C4CCC4)c3)n[nH]c12 (single isomer, unassigned) [Example C92] | 39.5 nM
8 | C[C@@H]1CCCN([C@H](C)c2nc(C(F)(F)F)cc3c(-c4cccc(C5(Cc6nncn6C)COC5)c4)n[nH]c23)C1 (single isomer, unassigned) [Example D14] | 140 nM
9 | Cn1cnnc1[C@@H](c1cccc(-c2n[nH]c3c(CN[C@H]4CCOC4)nc(C(F)(F)F)cc23)c1)C1CCC1 [Example D1, (3S)—N-{[3-{3-[(R)-cyclobutyl(4-methyl-4H-1,2,4-triazol-3-yl)methyl]phenyl}-5-(trifluoromethyl)-1H-pyrazolo[3,4-c]pyridin-7-yl]methyl}oxolan-3-amine] | 208 nM
10 | C[C@H](c1nc(C(F)(F)F)cc2c(-c3cccc(C4(Cc5nncn5C)COC4)c3)n[nH]c12)N1CCC(F)(F)C1 (single isomer, unassigned) [Example D6] | 31 nM
11 | C[C@H]1CN(Cc2nc(C(F)(F)F)cc3c(-c4cccc([C@H](c5nncn5C)C5CCC5)c4)n[nH]c23)CCO1 [Example C6, 3-{3-[(R)-cyclobutyl(4-methyl-4H-1,2,4-triazol-3-yl)methyl]phenyl}-7-{[(2S)-2-methylmorpholin-4-yl]methyl}-5-(trifluoromethyl)-1H-pyrazolo[3,4-c]pyridine] | 102 nM
12 | CC(c1nc(C(F)(F)F)cc2c(-c3cccc(C4(Cc5nncn5C)COC4)c3)n[nH]c12)N1CCCCC1 (single isomer, unassigned) [Example C21, 3-(3-{3-[(4-methyl-4H-1,2,4-triazol-3-yl)methyl]oxetan-3-yl}phenyl)-7-[(1ξ)-1-(piperidin-1-yl)ethyl]-5-(trifluoromethyl)-1H-pyrazolo[3,4-c]pyridine] | 108 nM
13 | Cn1cnnc1CC1(c2cccc(-c3n[nH]c4cnc(C(F)(F)F)cc34)c2)COC1 [Example B1, 3-(3-(3-((4-methyl-4H-1,2,4-triazol-3-yl)methyl)oxetan-3-yl)phenyl)-5-(trifluoromethyl)-1H-pyrazolo[3,4-c]pyridine] | 450 nM
14 | C[C@H]1CCCN(Cc2nc(C(F)(F)F)cc3c(-c4cccc([C@H](c5nncn5C)C5CCC5)c4)n[nH]c23)C1 [Example C7, 3-{3-[(R)-cyclobutyl(4-methyl-4H-1,2,4-triazol-3-yl)methyl]phenyl}-7-{[(3S)-3-methylpiperidin-1-yl]methyl}-5-(trifluoromethyl)-1H-pyrazolo[3,4-c]pyridine] | 47.7 nM
15 | C[C@H](NC1CCCC1)c1nc(C(F)(F)F)cc2c(-c3cccc([C@H](c4nncn4C)C4CCC4)c3)n[nH]c12 (single isomer, unassigned) [Example C10] | 189 nM
16 | C[C@H](NC1CCC1)c1nc(C(F)(F)F)cc2c(-c3cccc(C4(Cc5nncn5C)COC4)c3)n[nH]c12 [Example F1, N-{(1S)-1-[3-(3-{3-[(4-methyl-4H-1,2,4-triazol-3-yl)methyl]oxetan-3-yl}phenyl)-5-(trifluoromethyl)-1H-pyrazolo[3,4-c]pyridin-7-yl]ethyl}cyclobutanamine] | 11.2 nM
17 | CC(C)NC(C)c1nc(C(F)(F)F)cc2c(-c3cccc([C@H](c4nncn4C)C4CCC4)c3)n[nH]c12 (single isomer, unassigned) [Example C35] | 54 nM

Row | SMILES | Kd
18 | C[C@H](O)CN[C@@H](C)c1nc(C(F)(F)F)cc2c(-c3cccc([C@H](c4nncn4C)C4CCC4)c3)n[nH]c12 (single isomer, unassigned) [Example D19] | 17.2 nM
19 | C[C@H]1CN([C@@H](C)c2nc(C(F)(F)F)cc3c(-c4cccc(C5(Cc6nncn6C)COC5)c4)n[nH]c23)CCO1 (single isomer, unassigned) [Example D11] | 47.9 nM
20 | C[C@H](N[C@H]1CCC(F)(F)C1)c1nc(C(F)(F)F)cc2c(-c3cccc(C4(Cc5nncn5C)COC4)c3)n[nH]c12 (single isomer, unassigned) [Example C12] | 1.8 nM
21 | C[C@H](c1nc(C(F)(F)F)cc2c(-c3cccc(C4(Cc5nncn5C)COC4)c3)n[nH]c12)N1CC[C@@H](F)C1 (single isomer, unassigned) [Example D10] | 42 nM
22 | C[C@H](c1nc(C(F)(F)F)cc2c(-c3cccc(C4(Cc5nncn5C)COC4)c3)n[nH]c12)N1CCO[C@@H](C)C1 (single isomer, unassigned) [Example D12] | 46 nM
23 | C[C@H](N[C@@H]1CC[C@@H]1O)c1nc(C(F)(F)F)cc2c(-c3cccc([C@H](c4nncn4C)C4CCC4)c3)n[nH]c12 (single isomer, unassigned) [Example D28] | 2.2 nM
24 | C[C@@H](c1nc(C(F)(F)F)cc2c(-c3cccc(C4(Cc5nncn5C)COC4)c3)n[nH]c12)N1C[C@H](F)[C@@H](F)C1 (single isomer, unassigned) [Example D7] | 36 nM
25 | C[C@H](N)c1nc(C(F)(F)F)cc2c(-c3cccc([C@H](c4nncn4C)C4CCC4)c3)n[nH]c12 [Example K12, (1S)-1-[3-{3-[(R)-cyclobutyl(4-methyl-4H-1,2,4-triazol-3-yl)methyl]phenyl}-5-(trifluoromethyl)-1H-pyrazolo[3,4-c]pyridin-7-yl]ethan-1-amine] | 209 nM
26 | C[C@@H](N[C@@H]1CCC[C@@H]1O)c1nc(C(F)(F)F)cc2c(-c3cccc([C@H](c4nncn4C)C4CCC4)c3)n[nH]c12 (single isomer, unassigned) [Example D16] | 43.1 nM
27 | C[C@H](N[C@H]1CCOC1)c1nc(C(F)(F)F)cc2c(-c3cccc([C@H](c4nncn4C)C4CCC4)c3)n[nH]c12 (single isomer, unassigned) [Example C2] | 38.8 nM
28 | Cn1cnnc1CC1(c2cccc(-c3n[nH]c4c(CN[C@H]5CCC(F)(F)C5)nc(C(F)(F)F)cc34)c2)COC1 [Example C38, (1S)-3,3-difluoro-N-{[3-(3-{3-[(4-methyl-4H-1,2,4-triazol-3-yl)methyl]oxetan-3-yl}phenyl)-5-(trifluoromethyl)-1H-pyrazolo[3,4-c]pyridin-7-yl]methyl}cyclopentan-1-amine] | 70.5 nM
29 | C[C@H](NC1CC(F)(F)C1)c1nc(C(F)(F)F)cc2c(-c3cccc([C@H](c4nncn4C)C4CCC4)c3)n[nH]c12 (single isomer, unassigned) [Example D90] | 77.4 nM
30 | C[C@H]1CCCN(Cc2nc(C(F)(F)F)cc3c(-c4cccc(C5(Cc6nncn6C)COC5)c4)n[nH]c23)C1 [Example C30, 7-{[(3S)-3-methylpiperidin-1-yl]methyl}-3-(3-{3-[(4-methyl-4H-1,2,4-triazol-3-yl)methyl]oxetan-3-yl}phenyl)-5-(trifluoromethyl)-1H-pyrazolo[3,4-c]pyridine] | 35.9 nM
31 | CC(NC1CCCC1)c1nc(C(F)(F)F)cc2c(-c3cccc([C@H](c4nncn4C)C4CCC4)c3)n[nH]c12 (stereo partly drawn) [Example C14, N-{(1ξ)-1-[3-{3-[(R)-cyclobutyl(4-methyl-4H-1,2,4-triazol-3-yl)methyl]phenyl}-5-(trifluoromethyl)-1H-pyrazolo[3,4-c]cyclopen-7-yl]ethyl}cyclopentanamine] | 4.1 nM
32 | CC1CN(Cc2nc(C(F)(F)F)cc3c(-c4cccc(C5(Cc6nncn6C)COC5)c4)n[nH]c23)CCC1(F)F (single isomer, unassigned) [Example C32, 7-{[(3ξ)-4,4-difluoro-3-methylpiperidin-1-yl]methyl}-3-(3-{3-[(4-methyl-4H-1,2,4-triazol-3-yl)methyl]oxetan-3-yl}phenyl)-5-(trifluoromethyl)-1H-pyrazolo[3,4-c]pyridine] | 42.6 nM
33 | CCNC(C)c1nc(C(F)(F)F)cc2c(-c3cccc([C@H](c4nncn4C)C4CCC4)c3)n[nH]c12 (single isomer, unassigned) [Example C89] | 125 nM
34 | C[C@H](N[C@H]1CCC(F)(F)C1)c1nc(C(F)(F)F)cc2c(-c3cccc([C@H](c4nncn4C)C4CCC4)c3)n[nH]c12 [Example C8] | 5 nM
